Reference: patent US12070467B2, “Method of treating ciliated tissue using CSA micelles” (Brigham Young University, priority 2018, dated 2024)
Values joined by “and” are separate entries in the source; they are usually repeats but may differ in a detail not shown here. Equal values may be shown once. Read-outs that look alike come from different tables or passages of the source.

What was measured:
P. aeruginosa ATCC 47085 = assay: Minimum inhibitory concentration (MIC), broth microdilution; format: cell-based, Pseudomonas aeruginosa; conditions: 37° C., 18-20 h
Method: (§1) Staphylococcus aureus (ATCC 25923) and Pseudomonas aeruginosa (ATCC 47085 (PA01)) were grown from fresh colonies in trypticase soy broth (TSB) and incubated overnight at 37° C. Fungal cultures, Candida albicans (ATCC 90028) and Candida auris (CDC 0382, 0384, 0387, and 0389), were grown overnight in sabouraud dextrose broth (SDB) or Roswell Park Memorial Institute medium (RPMI). Cultures of bacteria and fungi were centrifuged, and pellets were washed three times with phosphate buffered saline (PBS) and further resuspended in fresh PBS. Bacterial cultures were diluted in TSB and fungal cultures were diluted in SDB or RPMI to […] or 10^6 CFU/mL (optical density (OD) readings at 600 nm).
Minimum inhibitory concentrations (MICs) were measured using the broth microdilution protocol described by the Clinical and Laboratory Standards Institute. […] Aliquots (100 μL) of a prepared inoculum (10^6 CFU/mL for bacteria and […] CFU/mL for fungi) were added, and plates were incubated at 37° C. for 18-20 h. Bacterial or fungal growth was visually observed to determine the MICs. Negative and positive controls were included for each set of MIC measurements. For studies with pluronic, the surfactant was added at 4% and 5% to the initial inocula in each experiment. Measurements were performed in triplicate for all susceptibility tests.

[1] = system: P. aeruginosa ATCC 47085 biofilm; assay: Minimum biofilm eradication concentration (MBEC); format: cell-based, Pseudomonas aeruginosa; conditions: 48 h biofilm, 24 h treatment
Method: as §1
Inocula (10^6 CFU/mL) of bacterial and fungal strains (P. aeruginosa, S. aureus, C. albicans, and C. auris) were incubated at 37° C. for 48 h in 1 mL of TSB or SDB in 96-well plates. Following incubation, the growth medium was gently removed, and wells were washed three times with sterile PBS. […] Wells, including well edges, were scraped thoroughly with a plastic spatula. Well contents were removed in 1 mL of neutralizing broth (Dey-Engley, Sigma-Aldrich) and placed in a sonicating water bath (Fisher Scientific FS60, 42 kHz, 100 W, Pittsburgh, PA, USA) to disrupt biofilms. […] After 24 h or 48 h of incubation at 37° C., colonies were counted and MBECs were determined. […]

C. auris CDC 382 biofilm = assay: Minimum biofilm eradication concentration (MBEC); format: cell-based, Candida auris; conditions: 48 h biofilm, 24 h treatment
Method: as §1
(§2) Inocula (10^6 CFU/mL) of bacterial and fungal strains (P. aeruginosa, S. aureus, C. albicans, and C. auris) were incubated at 37° C. for 48 h in 1 mL of TSB or SDB in 96-well plates. Following incubation, the growth medium was gently removed, and wells were washed three times with sterile PBS. […] Wells, including well edges, were scraped thoroughly with a plastic spatula. Well contents were removed in 1 mL of neutralizing broth (Dey-Engley, Sigma-Aldrich) and placed in a sonicating water bath (Fisher Scientific FS60, 42 kHz, 100 W, Pittsburgh, PA, USA) to disrupt biofilms. After 15 min, the resulting samples were serially diluted, and bacterial samples were plated on TSA while fungal samples were plated on SDA. After 24 h or 48 h of incubation at 37° C., colonies were counted and MBECs were determined. The minimum biofilm eradication concentration (MBEC) was defined as the lowest concentration of antibiotic that prevented bacterial regrowth.

C. auris CDC 384 biofilm = assay: Minimum biofilm eradication concentration (MBEC); format: cell-based, Candida auris; conditions: 48 h biofilm, 24 h treatment
Method: as §1, §2

C. auris CDC 387 biofilm = assay: Minimum biofilm eradication concentration (MBEC); format: cell-based, Candida auris; conditions: 48 h biofilm, 24 h treatment
Method: as §1, §2

C. auris CDC 389 biofilm = assay: Minimum biofilm eradication concentration (MBEC); format: cell-based, Candida auris; conditions: 48 h biofilm, 24 h treatment
Method: as §1, §2

[2] = system: bacterial and fungal biofilms: S. aureus (ATCC 25923), P. aeruginosa (ATCC 47085), C. albicans (ATCC 90028), C. auris (CDC 384); assay: Antibiofilm activity by plating organisms freed from biofilms and counting colonies (FIG. 2); format: cell-based; conditions: 100 μg/mL, 48 h biofilms
Method: Consequently, this concentration was used as a target for antibacterial and antifungal activity, as well as in tolerability studies with trachea and lung explants. A key preliminary question in these studies is whether the pluronic alone has any effect on bacteria and fungi. […] In these assays, biofilms were generated over 48 h, and after treatment, bacterial and fungal counts were determined by plating organisms freed from biofilms and counting colonies. Detection limits for the experiments were two logs. […] Antibiofilm results were determined through the plating of microorganisms freed from biofilms, culturing, and plate counting. In FIG. 2, white bars show remaining S. aureus (ATCC 25923); black bars show remaining P. aeruginosa (ATCC 47085); gray bars show remaining C. albicans (ATCC 90028); hashed bars show remaining C. auris (CDC 384). The Detection limit was 2 logs. * indicates p<0.05 relative to controls and to pluronic alone.

C. albicans = assay: Kinetics of fungicidal activity; format: cell-based, Candida albicans; conditions: CSA-131 100 μg/mL, pluronic 4%, data not shown
Method: Cultures were incubated at 37° C. At 5, 15, 30, 60, and 120 min, aliquots were removed from each well and added to neutralizing buffer to ensure that no further antibacterial activity occurred. These samples were then serially diluted and plated on TSA or SDA. Cultures were incubated at 37° C. for 24 h or 48 h, and colonies were counted and recorded.
Detection limit was two logs.

[3] = system: C. albicans (ATCC 90028) and C. auris (CDC 384) in trachea and lung explants; assay: Ex vivo antifungal efficacy in porcine trachea and lung explants (FIGS. 7A, 7B); format: cell-based, Candida albicans, Candida auris; conditions: 24 h
Method: Using 5 mm^3 explant cubes of porcine trachea and lung, ex vivo antifungal efficacy experiments were conducted. Cubes were dissected using a sterile razor blade form the ventral surface of the left caudal lobe of three sets of porcine lungs. After trimming excess tissues away from the explants to produce uniform of size (5 mm), explants were incubated at 37° C. in DMEM/RPMI inoculated with 10^6 CFU/explant of C. auris (CDC 0384) or C. albicans (ATCC 90028) in a 48-well plate. […] Treated explants were incubated for 24 h at 37° C. After incubation, tissues were suspended in 250 μL of neutralizing broth and vortex on the highest setting for 4 min. Samples were then serially diluted in PBS, plated on 5% sheep blood TSA plates, and incubated at 37° C. for 48 h.
FIGS. 7A and 7B are bar graphs comparing the antifungal activity of CSA compositions with and without micelles on fungi, and against a control without any CSA. White bars shown remaining C. albicans (ATCC 90028); black bars show remaining C. auris (CDC 384).

[4] = system: cilia on porcine trachea explants; conditions: for Number of explants (out of 12) clearing beads, <10 min / Number of explants (out of 12) clearing beads, <20 min / Number of explants (out of 12) clearing beads, <30 min / Number of explants (out of 12), No Clearance: CSA-131 100 μg/mL for 1 h; for Number of explants (out of 12) clearing beads, <20 min: between 10 and 20 min; for Number of explants (out of 12) clearing beads, <30 min: between 20 and 30 min; for Number of explants (out of 12), No Clearance: no clearance (>30 min)
Method: In this example, the effect of CSA compositions with and without micelles was tested using ciliated porcine lung tissue. […] An ex vivo assay was used to evaluate pluronic-containing formulations, and in this assay the beating of cilia can be actively observed. […] This method involves sectioning porcine trachea, supported in a nutrient medium, placing small beads on one side of the explant, and measuring the transfer (clearance) of the beads to the other side of the explants (FIG. 5). […] Twelve explants were used for each test condition, and the results are reported as the number clearing beads in a given amount of time.
Normal healthy porcine trachea and lung tissue was excised very fresh from slaughter. After aseptic collection, whole tissues were transported in a 1:1 mixture of Dulbecco's modified Eagle's medium (DMEM) and RPMI, which was pre-warmed and supplemented with penicillin-streptomycin-glutamine 100× (Hyclone, Logan, UT, USA). Explants were washed by tissue immersion three to four times in warm, fresh DMEM/RPMI media. Explants were maintained by continuous immersion in DMEM/RPMI media in a 5% CO2-95% air mixture in a humidified incubator at 37° C.
Tracheas were washed and extra exterior tissues to the cartilage were removed. Tracheas were opened and cut into approximately 2×1 cm explants consisting of the respiratory mucosa and underlying cartilage. […] Explants were then placed on small circular filter papers, which were placed on top of 1% agarose gel plugs bathed in medium in 6-well plates. […] Five microliters of a suspension of 1 μm diameter polystyrene microsphere beads (Polysciences, Inc., Warrington, PA, USA) were pipetted on one edge of epithelial surfaces and evaluated for their complete clearance (movement) across the surface with categorization of clearance in under 10 min, between 10 and 20 min, between 20 and 30 min, and no clearance (>30 min). Independent replicates were completed for each time point. Outcomes were then counted and a percentage of clearance was determined.

SMILES: CCCCCCCCCCCCNCCC[C@@H](C)[C@H]1CC[C@H]2[C@@H]3[C@H](OCCCN)C[C@@H]4C[C@H](OCCCN)CC[C@]4(C)[C@H]3C[C@H](OCCCN)[C@]12C.Cl.Cl.Cl.Cl [CSA-131]
- MIC (P. aeruginosa ATCC 47085): 2 µg/mL
- MBEC [1]: 100 µg/mL
- MBEC (C. auris CDC 382 biofilm): 82 µg/mL
- MBEC (C. auris CDC 384 biofilm): 48 µg/mL
- MBEC (C. auris CDC 387 biofilm): 64 µg/mL
- MBEC (C. auris CDC 389 biofilm): 48 µg/mL
- Reduction of bacterial and fungal counts from biofilms ([2]; with pluronic): > 99.99%
- Reduction of bacterial and fungal counts from biofilms ([2]; with pluronic, counts lowered to the detection limit (two logs)): > four
- Reduction of bacterial and fungal counts from biofilms ([2]; without pluronic): > 99.99%
- Reduction of bacterial and fungal counts from biofilms ([2]; without pluronic, counts lowered to the detection limit (two logs)): > four
- Difference in kinetic activity of the ceragenin alone and with pluronic (C. albicans): no significant differences
- Decrease of fungal counts in treated explants vs control explants ([3]; CSA-131 alone): up to 99%
- Decrease of fungal counts in treated explants vs control explants ([3]; CSA-131 alone, p<0.05 vs controls): one and a half to two
- Decrease of fungal counts in treated explants vs control explants ([3]; CSA-131 with pluronic 4%): up to 99%
- Decrease of fungal counts in treated explants vs control explants ([3]; CSA-131 with pluronic 4%, p<0.05 vs controls): one and a half to two
- Decrease of fungal counts in treated explants vs control explants ([3]; CSA-131 with pluronic 5%): up to 99%
- Decrease of fungal counts in treated explants vs control explants ([3]; CSA-131 with pluronic 5%, p<0.05 vs controls): one and a half to two
- Number of explants (out of 12) clearing beads, <10 min ([4]; 0% pluronic): 3/12
- Number of explants (out of 12) clearing beads, <20 min ([4]; 0% pluronic): 2/12
- Number of explants (out of 12) clearing beads, <30 min ([4]; 0% pluronic): 1/12
- Number of explants (out of 12), No Clearance ([4]; 0% pluronic): six of 12 and 6/12
- Number of explants (out of 12) clearing beads, <10 min ([4]; 1% pluronic): 4/12
- Number of explants (out of 12) clearing beads, <20 min ([4]; 1% pluronic): 2/12
- Number of explants (out of 12) clearing beads, <30 min ([4]; 1% pluronic): 1/12
- Number of explants (out of 12), No Clearance ([4]; 1% pluronic): 5/12
- Number of explants (out of 12) clearing beads, <10 min ([4]; 2% pluronic): 7/12
- Number of explants (out of 12) clearing beads, <20 min ([4]; 2% pluronic): 3/12
- Number of explants (out of 12) clearing beads, <30 min ([4]; 2% pluronic): 2/12
- Number of explants (out of 12) clearing beads, <10 min ([4]; 3% pluronic): 7/12
- Number of explants (out of 12) clearing beads, <20 min ([4]; 3% pluronic): 4/12
- Number of explants (out of 12) clearing beads, <30 min ([4]; 3% pluronic): 1/12
- Number of explants (out of 12) clearing beads, <10 min ([4]; 4% pluronic): 8/12
- Number of explants (out of 12) clearing beads, <20 min ([4]; 4% pluronic): 4/12
- Number of explants (out of 12) clearing beads, <10 min ([4]; 5% pluronic): 10/12
- Number of explants (out of 12) clearing beads, <20 min ([4]; 5% pluronic): 2/12
- Influence on bead clearance ([4]; CSA-131 100 μg/mL with pluronic (4%)): did not influence bead clearance
- Bead clearance / ciliary activity compared with the control ([4]; CSA-131 100 μg/mL, 5% pluronic): the same as the control
